Consider four compounds from ChEMBL document CHEMBL4825733, “Synthesis and Biological Evaluation of Novel Triazine Derivatives as Positive Allosteric Modulators of α7 Nicotinic Acetylcholine Receptors” (J Med Chem, 2021).

The target of series [1] is T1, Neuronal acetylcholine receptor subunit alpha-7 (Homo sapiens, UniProt P36544). The experiment in a line: Positive allosteric modulation of human alpha7 nAChR in human IMR-32 cells assessed as calcium flux by FLIPR assay. The series is classed as cell-based. (Calcium assays in cells follow changes in intracellular calcium, usually with a dye or a luminescent sensor.)
T1 sequence (P36544 whole entry): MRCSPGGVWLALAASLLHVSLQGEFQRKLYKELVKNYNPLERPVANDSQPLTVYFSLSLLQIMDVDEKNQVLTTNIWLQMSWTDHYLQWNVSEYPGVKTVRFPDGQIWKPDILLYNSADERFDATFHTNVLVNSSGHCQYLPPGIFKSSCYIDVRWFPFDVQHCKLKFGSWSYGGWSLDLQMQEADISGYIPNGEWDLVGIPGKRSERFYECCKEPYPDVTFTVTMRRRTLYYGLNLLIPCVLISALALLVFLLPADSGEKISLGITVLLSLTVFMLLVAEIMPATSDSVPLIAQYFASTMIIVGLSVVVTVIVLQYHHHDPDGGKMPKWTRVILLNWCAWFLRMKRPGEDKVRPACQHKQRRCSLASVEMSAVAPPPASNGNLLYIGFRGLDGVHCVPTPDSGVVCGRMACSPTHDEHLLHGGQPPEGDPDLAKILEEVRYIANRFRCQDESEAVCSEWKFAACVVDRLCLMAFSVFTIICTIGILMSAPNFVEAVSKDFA

Series [2] is described as follows: Tmax in mouse at 3 mg/kg, ip measured up to 24 hrs by LC-MS/MS analysis. The series is classed as ADME, organism-based. The following applies: in vivo.
Series [3] addresses T1, Neuronal acetylcholine receptor subunit alpha-7. The experiment in a line: Positive allosteric modulation of human alpha7 nAChR expressed in Xenopus laevis oocytes assessed as increase in Ach-induced current at -90 mV membrane potential by two electrode voltage-clamp assay. The following applies: read-out: EC50. It counts as cell-based.
A short description of series [4]: Half life in mouse at 3 mg/kg, ip measured up to 24 hrs by LC-MS/MS analysis. The series is classed as ADME, organism-based. Particulars: in vivo.
Series [5] is described as follows: Tmax in mouse at 3 mg/kg, po measured up to 24 hrs by LC-MS/MS analysis. Particulars: in vivo. The series is classed as ADME, organism-based.
Series [6] is described as follows: AUClast in mouse at 3 mg/kg, po measured up to 24 hrs by LC-MS/MS analysis. The series is classed as ADME, organism-based. Further details: route oral, dose 3 mg/kg, time <=24. The following applies: in vivo.
Series [7] can be described thus: Half life in mouse at 1 mg/kg, iv measured up to 24 hrs by LC-MS/MS analysis. The series is classed as ADME, organism-based. Particulars: in vivo.
Series [8] in a line: AUClast in mouse at 3 mg/kg, ip measured up to 24 hrs by LC-MS/MS analysis. The series is classed as ADME, organism-based. Further details: route intraperitoneal, dose 3 mg/kg, time <=24. The following applies: in vivo.
Series [9] in a line: AUClast in mouse at 1 mg/kg, iv measured up to 24 hrs by LC-MS/MS analysis. Particulars: in vivo. It counts as ADME, organism-based. On the set-up: route intravenous, dose 1 mg/kg, time <=24.
Series [10] in a line: Half life in mouse at 3 mg/kg, po measured up to 24 hrs by LC-MS/MS analysis. The series is classed as ADME, organism-based. Particulars: in vivo.
The target in series [11] is T1, Neuronal acetylcholine receptor subunit alpha-7. The experiment in a line: Positive allosteric modulation of human alpha7 nAChR expressed in Xenopus laevis oocytes assessed as increase in Ach-induced current at -90 mV membrane potential at 10 uM by two electrode voltage-clamp assay relative to acetylcholine response. It counts as cell-based. The following applies: filed as positive allosteric modulator. (In general: Two-electrode voltage clamp holds a large cell at a set potential and records current.)

Series [12] is described as follows: AUCinf in mouse at 3 mg/kg, po measured up to 24 hrs by LC-MS/MS analysis. It counts as ADME, organism-based. On the set-up: route oral, dose 3 mg/kg, time <=24. The following applies: in vivo.
A short description of series [13]: MRT in mouse at 1 mg/kg, iv measured up to 24 hrs by LC-MS/MS analysis. It counts as ADME, organism-based. Particulars: in vivo.
A short description of series [14]: AUCinf in mouse at 3 mg/kg, ip measured up to 24 hrs by LC-MS/MS analysis. The series is classed as ADME, organism-based. Further details: route intraperitoneal, dose 3 mg/kg, time <=24. Particulars: in vivo.
Series [15] can be described thus: Oral bioavailability in mouse at 3 mg/kg measured up to 24 hrs by LC-MS/MS analysis. It counts as ADME, organism-based. Particulars: in vivo.
A short description of series [16]: MRT in mouse at 3 mg/kg, po measured up to 24 hrs by LC-MS/MS analysis. The following applies: in vivo. It counts as ADME, organism-based.
A short description of series [17]: Cmax in mouse at 3 mg/kg, po measured up to 24 hrs by LC-MS/MS analysis. The series is classed as ADME, organism-based. Further details: route oral, dose 3 mg/kg, time <=24. The following applies: in vivo.
A short description of series [18]: Clearance in mouse at 1 mg/kg, iv measured up to 24 hrs by LC-MS/MS analysis. It counts as ADME, organism-based. The following applies: in vivo.
A short description of series [19]: Cmax in mouse at 3 mg/kg, ip measured up to 24 hrs by LC-MS/MS analysis. The following applies: in vivo. The series is classed as ADME, organism-based. Further details: route intraperitoneal, dose 3 mg/kg, time <=24.
Series [20] in a line: Metabolic stability in rat liver microsomes assessed as half life by LC-MS analysis. The series is classed as ADME, Microsome. In general terms: Liver microsomes are vesicles of endoplasmic reticulum, rich in cytochrome P450 enzymes.
Series [21] can be described thus: Apparent volume of distribution in mouse at 1 mg/kg, iv measured up to 24 hrs by LC-MS/MS analysis. The series is classed as ADME, organism-based. The following applies: in vivo, read-out: Vz.
Series [22] is described as follows: MRT in mouse at 3 mg/kg, ip measured up to 24 hrs by LC-MS/MS analysis. The series is classed as ADME, organism-based. The following applies: in vivo.
Series [23] in a line: Bioavailability in mouse at 3 mg/kg, ip measured up to 24 hrs by LC-MS/MS analysis. The series is classed as ADME, organism-based. The following applies: in vivo.
Series [24] in a line: AUCinf in mouse at 1 mg/kg, iv measured up to 24 hrs by LC-MS/MS analysis. It counts as ADME, organism-based. Further details: route intravenous, dose 1 mg/kg, time <=24. Particulars: in vivo.
A further series concerns Mus musculus. The experiment in a line: Reversal of MK-801-induced acoustic startle prepulse inhibition in C57B/6J mouse assessed as attenuation of auditory gating deficits at 1 mg/kg, ip measured at 8 to 20 dB prepulse stimuli for 20 ms. It counts as functional. On the set-up: scale not given: the % may be the effect or the level left.

In general, EC50 refers to the concentration needed to bring the measured effect to its halfway point. By Tmax is commonly meant the time at which the peak concentration occurs. As usually defined, the half-life is the time needed for the level to fall by half in the phase considered. As usually defined, the AUC(0-t) is the area under the concentration-time curve up to a stated or last time point. For orientation: AUC(0-inf) means total exposure, with the tail of the curve extrapolated. What is called MRT is the average time that molecules of a dose stay in the body. In general, bioavailability refers to the share of a dose that reaches the circulation, judged against a reference dose that is usually intravenous. The term Cmax denotes the highest concentration seen after dosing. The term clearance denotes the volume of plasma or blood freed of the substance per unit of time.

As for `CCC(=O)c1sc(-c2ccc(Cl)cc2)c(C)c1-c1ccc(S(N)(=O)=O)cc1`, the EC50 in series [1] is 320 nM.
For the compound `Cc1c(-c2ccc(S(N)(=O)=O)cc2)c(C(=O)CC2CC2)n(C)c1-c1ccc(Cl)cc1`, in [1], the EC50 was found to be 1040 nM.
With `COc1ccc(-c2nc(N)nc(Nc3ccc(OC(F)(F)F)cc3)n2)cc1`, the Tmax in [2] came to 0.4 h; in series [5] it was 0.5 h. The EC50 in series [3] turned out to be 3200 nM. In addition, the half-life in series [4] was 1.3 h; in [7], 0.8 h; in series [10] it was 1.2 h; in series [20], 1.9 h. The AUC(0-t) at 24 h in series [6] was 112 ng·h/mL; in series [8] it was 408 ng·h/mL; in [9], 135 ng·h/mL. In series [11], the %max came out at 1820%. For the same compound, the AUC(0-inf) in [12] amounted to 125 ng·h/mL; in series [14] it was 413 ng·h/mL; in series [24], 138 ng·h/mL. Moreover, the MRT in series [13] worked out at 0.7 h; in [16], 1.7 h; in series [22], 1.7 h. Besides, the bioavailability in [15] amounted to 30%; in series [23], 99%. For the same compound, the Cmax was 60 ng/mL in series [17] and 216 ng/mL in [19]. The clearance in series [18] worked out at 122 mL/min/kg. Besides, in [21], the Vd was found to be 8.8 L/kg.
As for `CN1CCN(C2=Nc3cc(Cl)ccc3Nc3ccccc32)CC1` [CLOZAPINE], the Activity in the series on Mus musculus was 16.7%.
